Among the data in patent US10689414B2 (Agios Pharmaceuticals, Inc., priority 2013, dated 2020) are IC50 values, retold here.

This assay deals with U87MG cells. As to the kind of experiment: Cellular assay, inhibition of 2-HG production in U87MG cells. The assay is classed as cell-based. As to the method:
Cells (HT1080 or U87MG) are grown in T125 flasks in DMEM containing 10% FBS, 1× penicillin/streptomycin and 500 ug/mL G418 (present in U87MG cells only). They are harvested by trypsin and seeded into 96 well white bottom plates at a density of 5000 cell/well in 100 ul/well in DMEM with 10% FBS. […] Cells are incubated overnight at 37° C. in 5% CO2. The next day test compounds are made up at 2× the final concentration and 100 ul are added to each cell well. The final concentration of DMSO is 0.2% and the DMSO control wells are plated in row G. The plates are then placed in the incubator for 48 hours. […] The cell plate is placed back in the incubator for another 24 hours. At 72 hours post compound addition, 10 mL/plate of Promega Cell Titer Glo reagent is thawed and mixed. The cell plate is removed from the incubator and allowed to equilibrate to room temperature. Then 100 ul of Promega Cell Titer Glo reagent is added to each well of media. The cell plate is then placed on an orbital shaker for 10 minutes and then allowed to sit at room temperature for 20 minutes. The plate is then read for luminescence with an integration time of 500 ms.

By IC50 is commonly meant the midpoint of a concentration-inhibition curve. High values mean a need for much substance, low ones inhibition by little substance.

As for `N#Cc1ccnc(N2C(=O)[C@H](O)C[C@H]2C(=O)N(c2cccc(F)c2)[C@@H](C(=O)NC2CCC(F)(F)CC2)c2ccccc2Cl)n1` [Compound 122, (2S,4R)—N—((R)-1-(2-Chlorophenyl)-2-((4,4-difluorocyclohexyl)amino)-2-oxoethyl)-1-(4-cyanopyrimidin-2-yl)-N-(3-fluorophenyl)-4-hydroxy-5-oxopyrrolidine-2-carboxamide], where the note is “Homo sapiens, U-87 MG, 48 h”, the IC50 fell in the range of 100 to 500 nM. On the same count and under the same terms, the same measure for `N#Cc1ccnc(N2C(=O)CC[C@H]2C(=O)N(c2cc(F)cc(F)c2)[C@H](C(=O)NC2CC(F)(F)C2)c2c(Cl)cccc2Cl)c1` [Compound 199, (S)-1-(4-Cyanopyridin-2-yl)-N—((S)-1-(2,6-dichlorophenyl)-2-((3,3-difluorocyclobutyl)amino)-2-oxoethyl)-N-(3,5-difluorophenyl)-5-oxopyrrolidine-2-carboxamide]: < 100 nM. The same measure, in the same setting: then `O=C(NC1CC(F)(F)C1)[C@H](c1ccccc1Cl)N(C(=O)[C@@H]1CCC(=O)N1c1cscn1)c1cccc(F)c1` [Compound 43, (S)—N—((S)-1-(2-Chlorophenyl)-2-(3,3-difluorocyclobutylamino)-2-oxoethyl)-N-(3-fluorophenyl)-5-oxo-1-(thiazol-4-yl)pyrrolidine-2-carboxamide], with < 100 nM; and `N#Cc1ccnc(N2C(=O)CC[C@H]2C(=O)N(c2cccc(CCO)c2)[C@H](C(=O)NC2CC(F)(F)C2)c2ccccc2Cl)c1` [Compound 160, (S)—N—((S)-1-(2-Chlorophenyl)-2-((3,3-difluorocyclobutyl)amino)-2-oxoethyl)-1-(4-cyanopyri-din-2-yl)-N-(3-(2-hydroxyethyl)phenyl)-5-oxopyrrolidine-2-carboxamide], with < 100 nM.

For the molecule `O=C(NC1CCC(F)(F)CC1)[C@H](c1ccccc1Cl)N(C(=O)[C@@H]1CCC(=O)N1c1cnccn1)c1cccc(F)c1` [Compound 58, (S)—N—((S)-1-(2-Chlorophenyl)-2-(4,4-difluorocyclohexylamino)-2-oxoethyl)-N-(3-fluorophenyl)-5-oxo-1-(pyrazin-2-yl)pyrrolidine-2-carboxamide], the IC50 (Homo sapiens, U-87 MG, 48 h) was < 100 nM. On the same count and under the same terms, then `N#Cc1ccnc(N2C(=O)CC[C@H]2C(=O)N(c2cc(F)cc(C3CC3)c2)[C@H](C(=O)NC2CCC(F)(F)CC2)c2ccccc2Cl)c1` [Compound 202, (S)—N—((S)-1-(2-Chlorophenyl)-2-((4,4-difluorocyclohexyl)amino)-2-oxoethyl)-1-(4-cyanopyridin-2-yl)-N-(3-cyclopropyl-5-fluorophenyl)-5-oxopyrrolidine-2-carboxamide], with < 100 nM; and `N#Cc1ccnc(N2C(=O)CC[C@H]2C(=O)N(c2cccc(F)c2)[C@H](C(=O)NC2CC(F)(F)C2)c2ccccc2)c1` [Compound 138, (S)-1-(4-Cyanopyridin-2-yl)-N—((S)-2-((3,3-difluorocyclobutyl)amino)-2-oxo-1-phenylethyl)-N-(3-fluorophenyl)-5-oxopyrrolidine-2-carboxamide], with < 100 nM; and `N#Cc1ccnc(N2C(=O)CC[C@H]2C(=O)N(c2cccc(S(N)(=O)=O)c2)[C@H](C(=O)NC2CC(F)(F)C2)c2ccccc2Cl)c1` [Compound 84, (S)—N—((S)-1-(2-Chlorophenyl)-2-(3,3-difluorocyclobutylamino)-2-oxoethyl)-1-(4-cyanopyridin-2-yl)-5-oxo-N-(3-sulfamoylphenyl)pyrrolidine-2-carboxamide], with 100 to 500 nM.

As for `CC(C)(O)c1cc(F)cc(N(C(=O)[C@@H]2CCOC(=O)N2c2cc(C#N)ccn2)[C@H](C(=O)NC2CC(F)(F)C2)c2ccccc2Cl)c1` [Compound 146, (S)—N—((S)-1-(2-Chlorophenyl)-2-(3,3-difluorocyclobutylamino)-2-oxoethyl)-3-(4-cyanopyridin-2-yl)-N-(3-fluoro-5-(2-hydroxypropan-2-yl)phenyl)-2-oxo-1,3-oxazinane-4-carboxamide], the IC50 (Homo sapiens, U-87 MG, 48 h) was < 100 nM. Same read-out and setting: then `N#Cc1ccnc(N2C(=O)[C@H](F)C[C@H]2C(=O)N(c2cccc(F)c2)[C@H](C(=O)NC2CCC(F)(F)CC2)c2ccccc2Cl)c1` [Compound 151, (2S,4R)—N—((S)-1-(2-Chlorophenyl)-2-((4,4-difluorocyclohexyl)amino)-2-oxoethyl)-1-(4-cyanopyridin-2-yl)-4-fluoro-N-(3-fluorophenyl)-5-oxopyrrolidine-2-carboxamide], with < 100 nM. Turning to `N#Cc1ccnc(N2C(=O)CC[C@H]2C(=O)N(c2cccc(C3(O)CC3)c2)[C@H](C(=O)NC2CC(F)(F)C2)c2ccccc2Cl)c1` [Compound 140, (S)—N—((S)-1-(2-Xhlorophenyl)-2-(3,3-difluorocyclobutylamino)-2-oxoethyl)-1-(4-cyanopyridin-2-yl)-N-(3-(1-hydroxycyclopropyl)phenyl)-5-oxopyrrolidine-2-carboxamide], the half-maximal inhibitory concentration (IC50) (inhibition of 2-HG production, U87MG cells, 48 hours) was < 100 nM.

For the molecule `N#Cc1cc(F)cc(N(C(=O)[C@@H]2CCC(=O)N2c2cc(C#N)ccn2)[C@H](C(=O)NC2CCC(F)(F)CC2)c2ccccc2Cl)c1` [Compound 184, (S)—N—((S)-1-(2-Chlorophenyl)-2-(4,4-difluorocyclohexylamino)-2-oxoethyl)-N-(3-cyano-5-fluorophenyl)-1-(4-cyanopyridin-2-yl)-5-oxopyrrolidine-2-carboxamide], the concentration for half-maximal inhibition (IC50) (Homo sapiens, U-87 MG, 48 h) is < 100 nM. Same read-out and setting: then `N#Cc1ccnc(N2C(=O)[C@H](O)C[C@H]2C(=O)N(c2cc(F)cc(F)c2)[C@H](C(=O)NC2CCC(F)(F)CC2)c2ccccc2Cl)n1` [Compound 127, (2S,4R)—N—((S)-1-(2-Chlorophenyl)-2-(4,4-difluorocyclohexylamino)-2-oxoethyl)-1-(4-cyanopyrimidin-2-yl)-N-(3,5-difluorophenyl)-4-hydroxy-5-oxopyrrolidine-2-carboxamide], with < 100 nM; and `N#Cc1ccnc(N2C(=O)[C@H](O)C[C@H]2C(=O)N(c2cc(F)cc(F)c2)[C@H](C(=O)NC2CCC(F)(F)CC2)c2ccccc2Cl)c1` [Compound 125, (2S,4R)—N—((S)-1-(2-Chlorophenyl)-2-(4,4-difluorocyclohexylamino)-2-oxoethyl)-1-(4-cyanopyridin-2-yl)-N-(3,5-difluorophenyl)-4-hydroxy-5-oxopyrrolidine-2-carboxamide], with < 100 nM.

Consider `CC(C)(O)c1cccc(N(C(=O)[C@@H]2CCC(=O)N2c2cc(C#N)ccn2)[C@H](C(=O)NC2CC(F)(F)C2)c2ccccc2Cl)c1` [Compound 179, (S)—N—((S)-1-(2C)-2-((3,3-difluorocyclobutyl)amino)-2-oxoethyl)-1-(4-cyanopyridin-2-yl)-N-(3-(2-hydroxypropan-2-yl)phenyl)-5-oxopyrrolidine-2-carboxamide], for which the IC50 (Homo sapiens, U-87 MG, 48 h) is < 100 nM. Still for that read-out and setting: then `N#Cc1ccnc(N2C(=O)[C@@H](O)C[C@H]2C(=O)N(c2cc(F)cc(F)c2)[C@H](C(=O)NC2CCC(F)(F)CC2)c2ccccc2Cl)c1` [Compound 174, (2S,4S)—N—((S)-1-(2-Chlorophenyl)-2-((4,4-difluorocyclohexyl)amino)-2-oxoethyl)-1-(4-cyanopyridin-2-yl)-N-(3,5-difluorophenyl)-4-hydroxy-5-oxopyrrolidine-2-carboxamide], with < 100 nM. The same measure, in the same setting: then `N#Cc1ccnc(N2C(=O)CC[C@H]2C(=O)N(c2cccc(OC(F)F)c2)[C@H](C(=O)NC2CC(F)(F)C2)c2ccccc2Cl)c1` [Compound 181, (S)—N—((S)-1-(2-Chlorophenyl)-2-((3,3-difluorocyclobutyl)amino)-2-oxoethyl)-1-(4-cyanopyridin-2-yl)-N-(3-(difluoromethoxy)phenyl)-5-oxopyrrolidine-2-carboxamide], with < 100 nM.
